Values of other authors in paper PMC7693160 (Pharmaceutics, 2020).

Legend:
Set-up in all cases: method as in Kumar et al. 43
Conditions in all cases: ref Kumar et al. 43, read-out: Perpetrator in vitro Ki; cited from earlier work
CYP2C9 1*/3* = system: CYP2C9 1*/3*
CYP2C9 3*/3* = system: CYP2C9 3*/3*
CYP2C9 1*/1* = system: CYP2C9 1*/1*

Q: Which Ki (CYP2C9 1*/3*) does the source give for `OC(Cn1cncn1)(Cn1cncn1)c1ccc(F)cc1F` [Fluconazole, fluconazole] here?
A: 17 µM

Q: And the Ki (CYP2C9 3*/3*)?
A: 23 µM

Q: And the Ki (CYP2C9 1*/1*)?
A: 11 µM
